# Reference: US10765687B2, “Methods and compounds to inhibit enveloped virus release” (Northwestern University, priority 2012, dated 2020)
# Where “and” joins values, the source holds several entries; their conditions need not be identical. Equal values may be shown once. Read-outs that look alike come from different tables or passages of the source.
# Assays:
# 293 cells [1] = test system: 293 cells
# HIV-1 [2] = experiment: Specific infectivity by MAGI assay; type: cell-based; details: versus DMSO controls
# Protocol: The amount of infectious virus normalized to ng of p24 obtained from the ELISA assay in the tissue cultures was determined by multinuclear activation of a galactosidase indicator (MAGI) assay. In this assay, infectious unit is scored by the blue color that is assumed by infected MAGI cells (Hela cells that have been engineered to express the indicator when the infecting particle is able to simulated natural infection up until expression of HIV-1 Tat).
# HIV-1 [3] = experiment: HIV-1 release from T-cells in culture, HIV-1 CA protein in media by ELISA; details: T cells contacted with compound then infected with HIV-1
# From the text: These compounds were further evaluated as antiviral inhibitors of virus budding and release using the methods disclosed herein.
# COS-1 cells = details: K21 100 μM, N20 20 μM; for Cytotoxicity, average of the independent experiments: average in parentheses, DMSO 21%; for Cytotoxicity (blue cells/total cells x 100): single count, DMSO 24%, 18%
# Protocol: The standard trypan blue assay, where dead cells are blue when visualized under a light microscope, was used to determine the percent of dead cells in the culture. Briefly, cells from a well of DMSO-treated, K21-treated and N20-treated samples were dislodged from the well with a stream of 1 ml PBS, collected, pelleted at 200 rpm for 2 min, and suspended in 300 μl trypsin-EDTA, incubated at 37° C. for 30 min. A diluted cell suspension was prepared by mixing 200 μl of the trypsin-treated cell suspension and 800 μl of PBS was used for the assay. For the assay itself: from the 1 ml of diluted cell suspension, 50 μl was taken an placed on paraffin and to this was mixed in 50 μl of 0.4% Trypan Blue dye in PBS, after exactly 2 minutes later, the mixture was loaded on a hematocytometer. The hematocytometer was placed on the light microscope stage and a blue cell count and an all cells count (blue and not blue cells) obtained. Two 50 μl aliquots were counted per sample.
# WWP2 (SEQ ID NO:24) = biological target: T1, WWP2 (SEQ ID NO:24) (Homo sapiens, UniProt O00308); experiment: Epic label-free binding assay of compounds to immobilized WWP2; details: Epic label-free binding, WWP2 as target; read-out: Kd
# T1 construct: poly-His (pET28b leader with thrombin site) (N, cleaved yes); made in house; host or cells: E. coli BL21 DE3
# T1 sequence (O00308 with tags, fused parts or gaps): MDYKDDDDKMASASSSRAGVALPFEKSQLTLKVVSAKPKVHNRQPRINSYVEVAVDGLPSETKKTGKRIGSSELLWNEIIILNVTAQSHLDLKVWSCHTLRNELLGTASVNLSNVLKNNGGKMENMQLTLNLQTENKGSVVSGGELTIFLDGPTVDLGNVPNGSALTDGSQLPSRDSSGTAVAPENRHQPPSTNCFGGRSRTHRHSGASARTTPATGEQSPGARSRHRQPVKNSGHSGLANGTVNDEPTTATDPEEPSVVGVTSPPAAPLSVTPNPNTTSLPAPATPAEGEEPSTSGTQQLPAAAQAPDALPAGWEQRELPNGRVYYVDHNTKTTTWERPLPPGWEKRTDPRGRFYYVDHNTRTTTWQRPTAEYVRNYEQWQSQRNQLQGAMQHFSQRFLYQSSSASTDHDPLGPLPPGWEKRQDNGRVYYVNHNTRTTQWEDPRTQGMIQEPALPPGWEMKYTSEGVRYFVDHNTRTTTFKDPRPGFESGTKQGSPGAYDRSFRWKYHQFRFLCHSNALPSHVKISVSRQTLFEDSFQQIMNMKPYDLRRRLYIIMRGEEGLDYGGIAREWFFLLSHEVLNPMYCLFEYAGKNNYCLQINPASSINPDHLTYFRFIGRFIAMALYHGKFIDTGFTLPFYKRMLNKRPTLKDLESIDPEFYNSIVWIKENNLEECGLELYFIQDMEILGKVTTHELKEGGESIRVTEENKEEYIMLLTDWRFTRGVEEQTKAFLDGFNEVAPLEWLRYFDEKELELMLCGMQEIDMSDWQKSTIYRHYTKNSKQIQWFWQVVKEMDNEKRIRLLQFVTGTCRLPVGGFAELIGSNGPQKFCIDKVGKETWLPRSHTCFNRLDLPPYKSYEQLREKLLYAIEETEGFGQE
# Protocol: Another preferred embodiment of an in vitro screening method is depicted in FIG. 3. In this method, the ability of the candidate compound 204 to directly interact with the cellular ESCRT-linked component protein (for example, Nedd4 family of polypeptides [for example, WWP1 (SEQ ID NO:29), WWP2 (SEQ ID NO:24), Nedd4 L, among others]) or TGS101 is evaluated. According to this embodiment, a cellular ESCRT component protein 202 is preferably immobilized to a substrate 201 (for example, a microtiter plate) via a linking group 203 (for example, an amine group). The substrate preferably includes an optional reference area that provides a control to prevent non-specific interactions with non-mobilized ESCRT complex protein 202 with substrate 201. The substrate 201 is washed and irradiated with broadband light so that a baseline refractive index is measured. Test compound 204 is added to the system to permit its binding to the immobilized ESCRT component protein 202 to form a resultant associative complex 205. The substrate 201 is irradiated with broadband light again to detect a change in the wavelength of the reflected light.
# High sensitivity biochemical plates (PerkinElmer Cat. No. 6057468) are used in WWP2 (SEQ ID NO:24) binding assay to maximize protein immobilization. […] Because compound stocks are in DMSO that affects the Epic label-free readout, the compound plates were prepared by Echo550 acoustic dispenser to keep DMSO content balanced for all wells. […]
# The binding of compounds to WWP2 (SEQ ID NO:24) was measured on the EnSpire label-free plate reader. After 25 minutes of thermal equilibration, a baseline reading was taken on the label-free plates with protein immobilized in assay buffer. […] The final reading was taken after 25 min of thermal equilibration and over a period of 60 minutes. The label-free responses were measured as shifts in reflected wavelength and were expressed in picometers (pm). Results were analyzed using the EnSpire label-free user interface software. […]
# 293 cells [4] = experiment: Toxicity of inhibitor concentrations to cultured cells of the VLP release assay; details: concentrations of FIG. 6A
SMILES,Cell toxicity of inhibitor concentrations (293 cells [1]),Counts of blue cells per ng p24 (specific infectivity) (HIV-1 [2]),HIV-1 particle release (in words) (HIV-1 [3]),"Cytotoxicity, average of the independent experiments (COS-1 cells)","Cytotoxicity (blue cells/total cells x 100) (COS-1 cells; listed as K21, hydrochloride)",Kd (WWP2 (SEQ ID NO:24)) [µM],Cell toxicity of inhibitor concentrations (293 cells [4]),Cytotoxicity (blue cells/total cells x 100) (COS-1 cells; listed as N20)
"Cl.NC(CO)C(=O)NNCc1ccc(O)c(O)c1O (racemic) [Benserazide Hydrochloride, (RS)-2-amino-3-hydroxy-N′-(2,3,4-trihydroxybenzyl) propanehydrazide hydrochloride]",not cell toxic,comparable,significant reduction in HIV-1 particle release,(31%),34% and 28%,7.9,–,–
"CN(C)[C@@H]1C(O)=C(C(N)=O)C(=O)[C@@]2(O)C(=O)C3=C(O)c4c(O)cccc4[C@@](C)(O)[C@H]3[C@H](O)[C@@H]12 [Oxytetracycline, (4S,4aR,5S,5aR,6S,12aS)-4-(dimethylamino)-3,5,6,10,11,12a-hexahydroxy-6-methyl-1,12-dioxo-1,4,4a,5,5a,6,12,12a-octahydrotetracene-2-carboxamide]",–,comparable,significant reduction in HIV-1 particle release,(32%),–,10.6,not cell toxic,29% and 35%
